Experiment [1] deals with T1, PRMT5 (Homo sapiens, UniProt O14744).
T1 construct: purchased Viva (custom protein)
The experiment in a line: PRMT5 biochemical IC50 assay with SAM as cofactor.

For experiment [2], the system named is HAP1 MTAP-intact cell line. The experiment in a line: SDMA in-cell western assay, HAP1 MTAP-intact. Type of experiment: cell-based. The conditions noted are these: Homo sapiens. In short, it runs like this:
(§1)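 Compounds were tested in HAP1 cells differing only in MTAP status (endogenous expression versus null). Cellular SDMA levels were then measured by in-cell western, giving an IC50 in each background.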

Experiment [3] has as its system HAP1 MTAP-deleted cell line. Nature of the experiment: Viability assay, MTAP-deleted cell line. Particulars: Homo sapiens. Type of experiment: cell-based. The source says:
Table 1 additionally indicates IC50 values in a viability assay for the MTAP-deleted cell line (column 10), indicating the effect of treatment with compound on cell survival.

Experiment [4] deals with T1, PRMT5. The experiment in a line: PRMT5 biochemical IC50 assay with MTA as cofactor.
Experiment [5] has as its system HAP1 MTAP-deleted cell line. The experiment in a line: SDMA in-cell western assay, HAP1 MTAP-deleted. The class given is cell-based. Particulars: for IC50: Homo sapiens; for MTAP intact/deleted ratio: IC50 ratio HAP1 MTAP-intact vs HAP1 MTAP-deleted, SDMA in-cell western. In short, it runs like this: as §1
Experiment [6] deals with T1, PRMT5. The experiment in a line: PRMT5 biochemical IC50 assay with no cofactor. From the text:
Table 1 indicates IC50 values (μM) against PRMT5 for exemplary compounds in the presence of SAM as cofactor, with no cofactor, and with MTA as cofactor, respectively (columns 4-6). […] Ki values can be calculated from the IC50 values as described in the Examples section. As detailed in the Examples section, for the assay performed in the presence of SAM, IC50=Ki×1.5 (Ki=IC50/1.5).

The mark [7] stands for this setting: PRMT5, SAM as cofactor, read-out: SAM IC50.
Setting [8] is: HAP1, SDMA in-cell western, HAP1 MTAP-intact, read-out: MTAP HAP1 intact IC50.
[9] abbreviates: HAP1, viability assay, MTAP-deleted cell line, read-out: HAP1 MTAP deleted viability.
Setting [10] is: PRMT5, MTA as cofactor, read-out: MTA IC50.
[11] abbreviates: HAP1, SDMA in-cell western, HAP1 MTAP-deleted, read-out: HAP1 MTAP deleted IC50.
The mark [12] stands for this setting: PRMT5, no cofactor, read-out: No Cofactor/rel IC50.

The structures appear in SMILES notation. Read-outs that look alike come from different tables or passages of the source. Where only a bound is given, the exact number is not on record here.

T1 sequence (O14744 whole entry): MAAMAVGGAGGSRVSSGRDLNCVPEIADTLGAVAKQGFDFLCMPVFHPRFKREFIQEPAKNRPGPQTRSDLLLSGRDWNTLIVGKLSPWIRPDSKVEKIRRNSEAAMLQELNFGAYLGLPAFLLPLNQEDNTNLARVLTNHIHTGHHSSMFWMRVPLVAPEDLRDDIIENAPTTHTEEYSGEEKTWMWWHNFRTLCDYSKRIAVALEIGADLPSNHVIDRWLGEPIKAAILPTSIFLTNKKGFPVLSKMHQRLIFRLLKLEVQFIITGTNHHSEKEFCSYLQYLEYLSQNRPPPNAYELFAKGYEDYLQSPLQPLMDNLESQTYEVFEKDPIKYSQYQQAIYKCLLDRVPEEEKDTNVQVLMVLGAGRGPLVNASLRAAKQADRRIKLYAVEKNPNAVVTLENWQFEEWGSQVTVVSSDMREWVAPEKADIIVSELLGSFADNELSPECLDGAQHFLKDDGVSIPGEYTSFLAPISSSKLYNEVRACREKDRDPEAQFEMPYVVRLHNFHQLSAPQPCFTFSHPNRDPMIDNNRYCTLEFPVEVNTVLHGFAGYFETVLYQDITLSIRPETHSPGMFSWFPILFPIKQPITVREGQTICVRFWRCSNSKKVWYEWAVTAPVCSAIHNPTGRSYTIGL
T1 sequence (Q9BQA1 whole entry partner): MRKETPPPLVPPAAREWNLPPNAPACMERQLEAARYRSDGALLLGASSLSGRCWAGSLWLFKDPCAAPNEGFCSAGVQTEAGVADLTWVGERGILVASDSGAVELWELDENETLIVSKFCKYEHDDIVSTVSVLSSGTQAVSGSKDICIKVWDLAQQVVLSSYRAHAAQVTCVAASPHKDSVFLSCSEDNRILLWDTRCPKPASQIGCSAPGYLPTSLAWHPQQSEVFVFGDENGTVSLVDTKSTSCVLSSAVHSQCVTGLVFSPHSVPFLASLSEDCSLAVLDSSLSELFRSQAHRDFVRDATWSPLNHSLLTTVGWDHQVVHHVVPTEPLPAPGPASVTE

Take `CCc1cc(NC(=O)C(=O)N2C[C@@H](C)CC[C@@H]2c2ccc3sc([C@H]4CCN(C)C(C)(C)C4)nc3c2)cnc1N` [Compound 1125, N-(6-amino-5-ethylpyridin-3-yl)-2-((2R,5S)-5-methyl-2-(2-(1,2,2-trimethylpiperidin-4-yl)benzo[d]thiazol-5-yl)piperidin-1-yl)-2-oxoacetamide]: the IC50 on PRMT5 [1] (setting [7]) is below 50 nM; in experiment [2] (setting [8]), below 100 nM; in experiment [3] (setting [9]) it was below 1000 nM; at PRMT5 [4] (setting [10]), below 50 nM; in experiment [5] (setting [11]), below 100 nM; on PRMT5 [6] (setting [12]), below 50 nM. For the same molecule, the MTAP intact/deleted ratio result in experiment [5] is recorded as “A (an IC50 ratio greater than or equal to 10 fold)”.
Turning to `CCc1cc(NC(=O)C(=O)N2C[C@@H](C)CC[C@@H]2c2ccc3sc([C@@H]4CN(C)CCO4)nc3c2)cnc1N` [Compound 1134, N-(6-amino-5-ethyl-3-pyridyl)-2-oxo-2-[(2R,5S)-5-methyl-2-[2-[(2S)-4-methylmorpholin-2-yl]-1,3-benzothiazol-5-yl]-1-piperidyl]acetamide], the IC50 on PRMT5 [1] (setting [7]) was 50 to 500 nM; in experiment [2] (setting [8]), below 100 nM; in experiment [3] (setting [9]), below 1000 nM; at PRMT5 [4] (setting [10]) it was below 50 nM; in experiment [5] (setting [11]), below 100 nM; at PRMT5 [6] (setting [12]), below 50 nM. Besides, the MTAP intact/deleted ratio result in experiment [5] is recorded as “A (an IC50 ratio greater than or equal to 10 fold)”.
`Cc1cc(NC(=O)C(=O)N2C[C@@H](C)CC[C@@H]2c2ccc3sc(C4CCN(C)CC4)nc3c2)cnc1C` [Compound 1137, N-(5,6-dimethylpyridin-3-yl)-2-((2R,5S)-5-methyl-2-(2-(1-methylpiperidin-4-yl)benzo[d]thiazol-5-yl)piperidin-1-yl)-2-oxoacetamide]: the IC50 on PRMT5 [1] (setting [7]) is below 50 nM; in experiment [2] (setting [8]), below 100 nM; in experiment [3] (setting [9]), below 1000 nM; on PRMT5 [4] (setting [10]), below 50 nM; in experiment [5] (setting [11]) it was below 100 nM; on PRMT5 [6] (setting [12]), below 50 nM. Further, the MTAP intact/deleted ratio entry in experiment [5] is “A (an IC50 ratio greater than or equal to 10 fold)”.
Regarding `CCc1cc(NC(=O)C(=O)N2C[C@@H](C)CC[C@@H]2c2ccc3sc([C@@H]4C[C@H]5CN(C)C[C@H]54)nc3c2)cnc1N` [Compound 1147, N-(6-amino-5-ethylpyridin-3-yl)-2-((5S)-5-methyl-2-(2-(3-methyl-3-azabicyclo[3.2.0]heptan-6-yl)benzo[d]thiazol-5-yl)piperidin-1-yl)-2-oxoacetamide], the IC50 at PRMT5 [1] (setting [7]) is below 50 nM; in experiment [2] (setting [8]) it was below 100 nM; in experiment [3] (setting [9]) it was below 1000 nM; at PRMT5 [4] (setting [10]), below 50 nM; in experiment [5] (setting [11]) it was below 100 nM; at PRMT5 [6] (setting [12]), below 50 nM. Besides, the MTAP intact/deleted ratio result in experiment [5] was “A (an IC50 ratio greater than or equal to 10 fold)”.
Take `CCc1cc(NC(=O)C(=O)N2C[C@@H](C)CC[C@@H]2c2ccc3sc(C4CN(C)C4)nc3c2)cnc1N` [Compound 1151, N-(6-amino-5-ethylpyridin-3-yl)-2-((2R,5S)-5-methyl-2-(2-(1-methylazetidin-3-yl)benzo[d]thiazol-5-yl)piperidin-1-yl)-2-oxoacetamide]: the IC50 on PRMT5 [1] (setting [7]) was below 50 nM; in experiment [2] (setting [8]), below 100 nM; in experiment [3] (setting [9]), below 1000 nM; at PRMT5 [4] (setting [10]), below 50 nM; in experiment [5] (setting [11]), below 100 nM; on PRMT5 [6] (setting [12]), below 50 nM. The MTAP intact/deleted ratio result in experiment [5] was “A (an IC50 ratio greater than or equal to 10 fold)”.
For `CCc1cc(NC(=O)C(=O)N2C[C@@H](C)CC[C@@H]2c2ccc3sc(CO)nc3c2)cnc1N` [Compound 1152, N-(6-amino-5-ethylpyridin-3-yl)-2-((2R,5S)-2-(2-(hydroxymethyl)benzo[d]thiazol-5-yl)-5-methylpiperidin-1-yl)-2-oxoacetamide], the IC50 at PRMT5 [1] (setting [7]) is 50 to 500 nM; in experiment [2] (setting [8]) it was 100 to 1000 nM; in experiment [3] (setting [9]), below 1000 nM; at PRMT5 [4] (setting [10]), below 50 nM; in experiment [5] (setting [11]), below 100 nM; at PRMT5 [6] (setting [12]), below 50 nM. Further, the MTAP intact/deleted ratio result in experiment [5] was “A (an IC50 ratio greater than or equal to 10 fold)”.
On to `COc1ncc(NC(=O)C(=O)N2C[C@@H](C)CC[C@@H]2c2ccc3sc(C4(CN(C)C)COC4)nc3c2)cc1C(N)=O` [Compound 1155, 5-(2-((2R,5S)-2-(2-(3-((dimethylamino)methyl)oxetan-3-yl)benzo[d]thiazol-5-yl)-5-methylpiperidin-1-yl)-2-oxoacetamido)-2-methoxynicotinamide], for which the IC50 on PRMT5 [1] (setting [7]) is below 50 nM; in experiment [2] (setting [8]), 100 to 1000 nM; in experiment [3] (setting [9]), below 1000 nM; at PRMT5 [4] (setting [10]) it was below 50 nM; in experiment [5] (setting [11]) it was below 100 nM; on PRMT5 [6] (setting [12]) it was below 50 nM. Also, the MTAP intact/deleted ratio entry in experiment [5] is on record as “A (an IC50 ratio greater than or equal to 10 fold)”.
Take `CCc1cc(NC(=O)C(=O)N2C[C@@H](C)CC[C@@H]2c2ccc3sc(C4(F)CCN(C)CC4)nc3c2)cnc1N` [Compound 1160, N-(6-amino-5-ethylpyridin-3-yl)-2-((2R,5S)-2-(2-(4-fluoro-1-methylpiperidin-4-yl)benzo[d]thiazol-5-yl)-5-methylpiperidin-1-yl)-2-oxoacetamide]: the IC50 at PRMT5 [1] (setting [7]) was below 50 nM; in experiment [2] (setting [8]), below 100 nM; in experiment [3] (setting [9]), below 1000 nM; on PRMT5 [4] (setting [10]), below 50 nM; in experiment [5] (setting [11]), below 100 nM; on PRMT5 [6] (setting [12]), below 50 nM. In addition, in experiment [5], the MTAP intact/deleted ratio result is listed as “A (an IC50 ratio greater than or equal to 10 fold)”.
Regarding `COc1ncc(NC(=O)C(=O)N2C[C@@H](C)CC[C@@H]2c2ccc3sc(CN(C)C)nc3c2)cc1C(N)=O` [Compound 1162, 5-(2-((2R,5S)-2-(2-((dimethylamino)methyl)benzo[d]thiazol-5-yl)-5-methylpiperidin-1-yl)-2-oxoacetamido)-2-methoxynicotinamide], the IC50 is 50 to 500 nM at PRMT5 [1] (setting [7]); 100 to 1000 nM in experiment [2] (setting [8]); below 1000 nM in experiment [3] (setting [9]); below 50 nM on PRMT5 [4] (setting [10]); below 100 nM in experiment [5] (setting [11]); below 50 nM at PRMT5 [6] (setting [12]). Besides, in experiment [5], the MTAP intact/deleted ratio result is on record as “A (an IC50 ratio greater than or equal to 10 fold)”.
Consider `CCN1CCC(c2nc3cc([C@H]4CC[C@H](C)CN4C(=O)C(=O)Nc4cnc(OC)c(C(N)=O)c4)ccc3s2)CC1` [Compound 1164, 5-(2-((2R,5)-2-(2-(1-ethylpiperidin-4-yl)benzo[d]thiazol-5-yl)-5-methylpiperidin-1-yl)-2-oxoacetamido)-2-methoxynicotinamide], for which the IC50 is below 50 nM on PRMT5 [1] (setting [7]); 100 to 1000 nM in experiment [2] (setting [8]); below 1000 nM in experiment [3] (setting [9]); below 50 nM at PRMT5 [4] (setting [10]); below 100 nM in experiment [5] (setting [11]); below 50 nM on PRMT5 [6] (setting [12]). The MTAP intact/deleted ratio entry in experiment [5] is listed as “A (an IC50 ratio greater than or equal to 10 fold)”.
As for `CCc1cc(NC(=O)C(=O)N2C[C@@H](C)CC[C@@H]2c2ccc3sc(C4(CN(C)C)COC4)nc3c2)cnc1N` [Compound 1165, N-(6-amino-5-ethylpyridin-3-yl)-2-((2R,5S)-2-(2-(3-((dimethylamino)methyl)oxetan-3-yl)benzo[d]thiazol-5-yl)-5-methylpiperidin-1-yl)-2-oxoacetamide], the IC50 was 50 to 500 nM at PRMT5 [1] (setting [7]); below 100 nM in experiment [2] (setting [8]); below 1000 nM in experiment [3] (setting [9]); below 50 nM on PRMT5 [4] (setting [10]); below 100 nM in experiment [5] (setting [11]); below 50 nM on PRMT5 [6] (setting [12]). For the same molecule, in experiment [5], the MTAP intact/deleted ratio result is “B (an IC50 ratio greater than or equal to 3 fold but lower than 10 fold)”.
Turning to `CCc1cc(NC(=O)C(=O)N2C[C@@H](C)CC[C@@H]2c2ccc3sc(C4(C)CCN(C)CC4)nc3c2)cnc1N` [Compound 1171, N-(6-amino-5-ethylpyridin-3-yl)-2-((2R,5S)-2-(2-(1,4-dimethylpiperidin-4-yl)benzo[d]thiazol-5-yl)-5-methylpiperidin-1-yl)-2-oxoacetamide], the IC50 on PRMT5 [1] (SAM IC50, PRMT5, SAM as cofactor) was below 50 nM; in experiment [2] (HAP1, read-out: MTAP HAP1 intact IC50) it was below 100 nM; in experiment [3] (HAP1, read-out: HAP1 MTAP deleted viability), below 1000 nM; against PRMT5 [4] (MTA IC50, PRMT5, MTA as cofactor) it was below 50 nM; in experiment [5] (HAP1, read-out: HAP1 MTAP deleted IC50), below 100 nM; on PRMT5 [6] (No Cofactor/rel IC50, PRMT5, no cofactor), below 50 nM. Moreover, the MTAP intact/deleted ratio entry in experiment [5] is “A (an IC50 ratio greater than or equal to 10 fold)”.
For the molecule `CCc1cc(NC(=O)C(=O)N2C[C@@H](C)CC[C@@H]2c2ccc3sc(C4CCN(CCF)CC4)nc3c2)cnc1N` [Compound 1174, N-(6-amino-5-ethylpyridin-3-yl)-2-((2R,5S)-2-(2-(1-(2-fluoroethyl)piperidin-4-yl)benzo[d]thiazol-5-yl)-5-methylpiperidin-1-yl)-2-oxoacetamide], the IC50 was below 50 nM on PRMT5 [1] (setting [7]); below 100 nM in experiment [2] (setting [8]); below 1000 nM in experiment [3] (setting [9]); below 50 nM on PRMT5 [4] (setting [10]); below 100 nM in experiment [5] (setting [11]); below 50 nM at PRMT5 [6] (setting [12]). Besides, in experiment [5], the MTAP intact/deleted ratio result was “A (an IC50 ratio greater than or equal to 10 fold)”.

The values are drawn from patent US11999727B2 (Tango Therapeutics, Inc., priority 2020, dated 2024).
